Experiments:
D. immitis microfilariae = assay: Dirofilaria immitis, microfilariae (DiMF) in vitro motility assay; assay type: cell-based; conditions: Dirofilaria immitis, 72 h, read-out: DiMF minimally effective dose (MEC)
Haemonchus contortus L3 = assay: microbe, parasite or virus in culture; assay type: cell-based; conditions: Haemonchus contortus, 96 h, read-out: HcL3 Minimal Effective Concentration (MEC)

Compound | minimal effective concentration (D. immitis microfilariae) [µM] | minimal effective concentration (Haemonchus contortus L3) [µM]
N#Cc1ccc2c(c1)c1c(n2C(=O)NCc2ccnc(F)c2)CCN(C/C=C/c2c(F)cc(Cl)cc2F)C1 [Example 103, (E)-2-(3-(4-chloro-2,6-difluorophenyl)allyl)-8-cyano-N-((2-fluoropyridin-4-yl)methyl)-1,2,3,4-tetrahydro-5H-pyrido[4,3-b]indole-5-carboxamide] | 3.3 | 0.2
N#Cc1ccc2c(c1)c1c(n2C(=O)NCc2ccnc(F)c2)CCN(C/C=C/c2ccc(Cl)cc2F)C1 [Example 104, (E)-2-(3-(4-chloro-2-fluorophenyl)allyl)-8-cyano-N-((2-fluoropyridin-4-yl)methyl)-1,2,3,4-tetrahydro-5H-pyrido[4,3-b]indole-5-carboxamide] | 3.2 | 0.1
N#Cc1ccc2c(c1)c1c(n2C(=O)NCc2ccnc(F)c2)CCN(C/C=C/c2ccc(Br)c(F)c2)C1 [Example 105, (E)-2-(3-(4-bromo-3-fluorophenyl)allyl)-8-cyano-N-((2-fluoropyridin-4-yl)methyl)-1,2,3,4-tetrahydro-5H-pyrido[4,3-b]indole-5-carboxamide] | > 100 | 0.3
N#Cc1ccc2c(c1)c1c(n2C(=O)NCc2ccnc(F)c2)CCN(C/C=C/c2c(F)cc(F)cc2F)C1 [Example 106, (E)-8-cyano-N-((2-fluoropyridin-4-yl)methyl)-2-(3-(2,4,6-trifluorophenyl)allyl)-1,2,3,4-tetrahydro-5H-pyrido[4,3-b]indole-5-carboxamide] | > 100 | 0.3
N#Cc1ccc2c(c1)c1c(n2C(=O)NCc2ccnc(F)c2)CCN(C/C=C/c2cc(F)ccc2Br)C1 [Example 107, (E)-2-(3-(2-bromo-5-fluorophenyl)allyl)-8-cyano-N-((2-fluoropyridin-4-yl)methyl)-1,2,3,4-tetrahydro-5H-pyrido[4,3-b]indole-5-carboxamide] | 1.8 | 0.5
N#Cc1ccc2c(c1)c1c(n2C(=O)NCc2ccnc(F)c2)CCN(C/C=C/c2ccc(F)c(F)c2F)C1 [Example 110, (E)-8-cyano-N-((2-fluoropyridin-4-yl)methyl)-2-(3-(2,3,4-trifluorophenyl)allyl)-1,2,3,4-tetrahydro-5H-pyrido[4,3-b]indole-5-carboxamide] | > 100 | 0.3
N#Cc1ccc2c(c1)c1c(n2C(=O)NCc2ccnc(F)c2)CCN(C/C=C/c2ccc(Br)c(F)c2F)C1 [Example 111, (E)-2-(3-(4-bromo-2,3-difluorophenyl)allyl)-8-cyano-N-((2-fluoropyridin-4-yl)methyl)-1,2,3,4-tetrahydro-5H-pyrido[4,3-b]indole-5-carboxamide] | > 100 | 0.3
N#Cc1ccc2c(c1)c1c(n2C(=O)NCc2ccnc(F)c2)CCN(C/C=C/c2cc(Cl)c(F)c(Cl)c2)C1 [Example 112, (E)-8-cyano-2-(3-(3,5-dichloro-4-fluorophenyl)allyl)-N-((2-fluoropyridin-4-yl)methyl)-1,2,3,4-tetrahydro-5H-pyrido[4,3-b]indole-5-carboxamide] | > 100 | 0.5
N#Cc1ccc2c(c1)c1c(n2C(=O)NCc2ccnc(F)c2)CCN(C/C=C/c2ccc(F)c(C#N)c2)C1 [Example 113, (E)-8-cyano-2-(3-(3-cyano-4-fluorophenyl)allyl)-N-((2-fluoropyridin-4-yl)methyl)-1,2,3,4-tetrahydro-5H-pyrido[4,3-b]indole-5-carboxamide] | > 100 | 1.3
N#Cc1ccc2c(c1)c1c(n2C(=O)NCc2ccnc(F)c2)CCN(C/C=C/c2ccc(F)cc2Cl)C1 [Example 114, (E)-2-(3-(2-chloro-4-fluorophenyl)allyl)-8-cyano-N-((2-fluoropyridin-4-yl)methyl)-1,2,3,4-tetrahydro-5H-pyrido[4,3-b]indole-5-carboxamide] | 10 | 0.1
N#Cc1ccc2c(c1)c1c(n2C(=O)NCc2ccnc(F)c2)CCN(C/C=C/c2cc(F)c(F)c(F)c2)C1 [Example 116, (E)-8-cyano-N-((2-fluoropyridin-4-yl)methyl)-2-(3-(3,4,5-trifluorophenyl)allyl)-1,2,3,4-tetrahydro-5H-pyrido[4,3-b]indole-5-carboxamide] | 1.3 | 0.1
N#Cc1ccc2c(c1)c1c(n2C(=O)NCc2ccnc(F)c2)CCN(C/C=C/c2cc(F)cc(F)c2)C1 [Example 117, (E)-8-cyano-2-(3-(3,5-difluorophenyl)allyl)-N-((2-fluoropyridin-4-yl)methyl)-1,2,3,4-tetrahydro-5H-pyrido[4,3-b]indole-5-carboxamide] | 1.8 | 0.2
N#Cc1ccc2c(c1)c1c(n2C(=O)NCc2ccnc(F)c2)CCN(C/C=C/c2cccc(Cl)c2F)C1 [Example 118, (E)-2-(3-(3-chloro-2-fluorophenyl)allyl)-8-cyano-N-((2-fluoropyridin-4-yl)methyl)-1,2,3,4-tetrahydro-5H-pyrido[4,3-b]indole-5-carboxamide] | 5.7 | 1.8
N#Cc1ccc2c(c1)c1c(n2C(=O)NCc2ccnc(F)c2)CCN(C/C=C/c2cccc(F)c2F)C1 [Example 119, (E)-8-cyano-2-(3-(2,3-difluorophenyl)allyl)-N-((2-fluoropyridin-4-yl)methyl)-1,2,3,4-tetrahydro-5H-pyrido[4,3-b]indole-5-carboxamide] | 18.2 | 3.3
N#Cc1ccc(/C=C/CN2CCc3c(c4cc(C#N)ccc4n3C(=O)NCc3ccnc(F)c3)C2)cc1 [Example 120, (E)-8-cyano-2-(3-(4-cyanophenyl)allyl)-N-((2-fluoropyridin-4-yl)methyl)-1,2,3,4-tetrahydro-5H-pyrido[4,3-b]indole-5-carboxamide] | > 100 | 0.5
N#Cc1ccc2c(c1)c1c(n2C(=O)NCc2ccnc(F)c2)CCN(C/C=C/c2ccc(Cl)cc2)C1 [Example 121, (E)-2-(3-(4-chlorophenyl)allyl)-8-cyano-N-((2-fluoropyridin-4-yl)methyl)-1,2,3,4-tetrahydro-5H-pyrido[4,3-b]indole-5-carboxamide] | 10 | 0.3
N#Cc1ccc2c(c1)c1c(n2C(=O)NCc2ccnc(F)c2)CCN(C/C=C/c2ccncc2)C1 [Example 124, (E)-8-cyano-N-((2-fluoropyridin-4-yl)methyl)-2-(3-(pyridin-4-yl)allyl)-1,2,3,4-tetrahydro-5H-pyrido[4,3-b]indole-5-carboxamide] | 33 | 100
N#Cc1ccc2c(c1)c1c(n2C(=O)NCc2ccnc(F)c2)CCN(C/C=C/c2ccc(F)cc2Br)C1 [Example 125, (E)-2-(3-(2-bromo-4-fluorophenyl)allyl)-8-cyano-N-((2-fluoropyridin-4-yl)methyl)-1,2,3,4-tetrahydro-5H-pyrido[4,3-b]indole-5-carboxamide] | > 100 | 0.3
N#Cc1ccc2c(c1)c1c(n2C(=O)NCc2ccnc(F)c2)CCN(C/C=C/c2cc(Br)cs2)C1 [Example 126, (E)-2-(3-(4-bromothiophen-2-yl)allyl)-8-cyano-N-((2-fluoropyridin-4-yl)methyl)-1,2,3,4-tetrahydro-5H-pyrido[4,3-b]indole-5-carboxamide] | > 100 | > 100
Cc1ccc2c3c(n(C(=O)NCc4ccnc(Cl)c4)c2c1)CCN(C/C=C/c1ccc(Cl)c(Cl)c1)C3 [Example 145, (E)-N-((2-chloropyridin-4-yl)methyl)-2-(3-(3,4-dichlorophenyl)allyl)-7-methyl-1,2,3,4-tetrahydro-5H-pyrido[4,3-b]indole-5-carboxamide] | 33 | 1
Cc1ccc2c3c(n(C(=O)NCc4ccnc(Cl)c4)c2c1)CCN(C/C=C/c1ccc(Cl)cc1)C3 [Example 146, (E)-2-(3-(4-chlorophenyl)allyl)-N-((2-chloropyridin-4-yl)methyl)-7-methyl-1,2,3,4-tetrahydro-5H-pyrido[4,3-b]indole-5-carboxamide] | 10 | 0.4
Cc1cccc2c1c1c(n2C(=O)NCc2ccnc(Cl)c2)CCN(C/C=C/c2ccc(Cl)cc2)C1 [Example 147, (E)-2-(3-(4-chlorophenyl)allyl)-N-((2-chloropyridin-4-yl)methyl)-9-methyl-1,2,3,4-tetrahydro-5H-pyrido[4,3-b]indole-5-carboxamide] | 10 | 2.8
Cc1cccc2c1c1c(n2C(=O)NCc2ccnc(Cl)c2)CCN(C/C=C/c2ccc(F)cc2)C1 [Example 149, (E)-N-((2-chloropyridin-4-yl)methyl)-2-(3-(4-fluorophenyl)allyl)-9-methyl-1,2,3,4-tetrahydro-5H-pyrido[4,3-b]indole-5-carboxamide] | 10 | 4.4
Cc1ccc2c3c(n(C(=O)NCc4ccnc(Cl)c4)c2c1)CCN(C/C=C/c1ccc(C(F)(F)F)cc1)C3 [Example 150, (E)-N-((2-chloropyridin-4-yl)methyl)-7-methyl-2-(3-(4-(trifluoromethyl)-phenyl)allyl)-1,2,3,4-tetrahydro-5H-pyrido[4,3-b]indole-5-carboxamide] | 10 | 3.3
CS(=O)(=O)c1ccc(/C=C/CN2CCc3c(c4ccc(C(F)(F)F)cc4n3C(=O)NCc3ccnc(Cl)c3)C2)cc1 [Example 151, (E)-N-((2-chloropyridin-4-yl)methyl)-2-(3-(4-(methylsulfonyl)phenyl)allyl)-7-(trifluoromethyl)-1,2,3,4-tetrahydro-5H-pyrido[4,3-b]indole-5-carboxamide] | 13.5 | > 100
